Where two headings read alike, the source gives them in different places.
Columns and labels:
Type in all cases: cell-based
[1] = Cytotoxicity assay (WST-1); conditions: human, HeLa cervical adenocarcinoma (epithelial) cells, 100 μM test compound
Procedure: (§1) HeLa cervical adenocarcinoma (epithelial) cells were cultured in the presence of 100 μM of test compound for 72 hours and cell viability was measured using the WST-1 tetrazolium salt (cleaved to formazan by mitochondrial respiratory chain enzymes, which are only active in viable cells). The absorbance of the dye solution was measured at 450 nm. Controls included cells alone, 0.05% NP-40 plus cells (100% cytotoxicity control) and each of the compound vehicles alone, DMSO or water at the same final concentration in medium as the compound in test wells. % Cytotoxicity was calculated as follows: % cytotoxicity=100×(1-ODtest compound/ODcells alone).

rat aorta ring = experiment: Rat aorta assay for angiogenesis inhibition (rat aorta ring model); conditions: for inhibition at 0.5 µg/mL: 0.5 μg/mL; for inhibition at 1 µg/mL: 1 μg/mL
Text: Rat Aorta Assay for Angiogenesis Inhibition
The rat aorta ring model based on that described by Nicosia and Ottinetti (Nicosia, R. F. et al. Lab. Investigation 63: 115, 1990; Nicosia, R. F. et al. Cell. Dev. Biol. 26: 119-128, 1990), was used throughout the assay.
The agarose was made up as a 1.5% solution in distilled water and brought to the boil to form a clear solution which was poured into sterile 9 cm petri dishes, covered and allowed to cool and set.
Maintaining sterile conditions, agarose rings were obtained by punching two concentric circles, with sterile10 and 17 mm hole punches, respectively, in the agarose gel. Using sterile forceps, the rings are removed and placed, three per well in each of the 6-well plates.
The MEM was prepared according to manufacturer's directions, but before filtering through a 0.22 μm filter, HEPES and L-glutamine were added to give 10 mM and 1 mM concentrations respectively with pH adjusted to 7.4. Eight hundred mL of this medium were filtered through a 0.2 μm filter along with the antibiotics (50 mg/L Gentamycin sulphate and 2.5 mg/L Amphotericin B) and 200 mL of FCS (to give 20%) to yield one litre of medium.
The aorta was removed from a 3-4 month male Copenhagen rat and transferred to a dissecting dish where it was cleaned and carefully stripped of the fibroadipose tissue surrounding it. Rings of 0.5 mm were cut, using a fresh scalpel blade, from the length of the aorta. These were kept under sterile conditions in a biohazard hood where they were washed 12 times with MEM.
Before transferring the aortic rings to the culture plate, the bottom of each agarose well was coated with 150 μL of clotting fibrinogen. Fibrinogen was made up as a 3 mg/mL solution in MEM, while thrombin made up in distilled water to give a concentration of 50 U/mL. The fibrinogen (1 mL) and the thrombin (20 μL) reacted within 30 sec to form a solid gel.
The aortic rings were transferred to the 6-well plates, with one ring placed in the center of each agarose well. Fresh fibrinogen/thrombin was made up as before and 150 μL was used to seal in each aortic ring. The gels were rested for approximately 2 hours before the medium was added.
[…] The compounds were made up as 6 mg/mL solution in water or DMSO. The test solutions were added to each well with the medium.
Six mL of MEM were carefully added to each of three wells to become the controls. MEM, along with the test compounds were added to the remaining wells and all were covered and transferred to the CO2 Incubator at 37° C., where they were kept for the next 14 days.
However, by the fifth day, there were noticeable changes in the tissue. Micro-vessels were seen and scored. We have based the scoring method on that used by Liekens et al. (Liekens, S., et al. Oncol. Res. 9: 173-181, 1997) in which 0 meant no vessels and 10 meant maximum vessels; the score is then converted into a percentage inhibition of vessel growth.

HUVEC [2] = experiment: Growth inhibition assay (crystal violet); conditions: HUVEC proliferation, 72 h
Procedure: HUVEC (1.5×10^3) are plated in a 96-well plate in 100 μL of EBM-2 (Clonetic # CC3162). After 24 h (day 0), the test compound (100 μL) is added to each well at twice the desired concentration (5-7 concentration levels) in EBM-2 medium. On day 0, one plate is stained with 0.5% crystal violet in 20% methanol for 10 minutes, rinsed with water, and air-dried. The remaining plates are incubated for 72 h at 37° C. After 72 h, plates are stained with 0.5% crystal violet in 20% methanol, rinsed with water and air-dried. The stain is eluted with 1:1 solution of ethanol:0.1M sodium citrate (including day 0 plate), and absorbance is measured at 540 nm with an ELISA reader (Dynatech Laboratories). Day 0 absorbance is subtracted from the 72 h plates and data is plotted as percentage of control proliferation (vehicle treated cells). IC50 (drug concentration causing 50% inhibition) is calculated from the plotted data.

HUVEC [3] = experiment: Cord formation assay on matrigel; conditions: Homo sapiens, 24 h incubation
Procedure: Matrigel (60 μL of 10 mg/mL) is placed in each well of an ice-cold 96-well plate. The plate is allowed to sit at room temperature for 15 minutes then incubated at 37° C. for 30 minutes to permit the matrigel to polymerize. In the mean time, HUVEC are prepared in EGM-2 (Clonetic # CC3162) at a concentration of 2×10^5 cells/mL. The test compound is prepared at twice the desired concentration (5 concentration levels) in the same medium. Cells (50 μL) and 2×drug […] is mixed and 200 μL of this suspension are placed in duplicate on the polymerized matrigel. After 24 h incubation, triplicate pictures are taken for each concentration using a Bioquant Image Analysis system. Drug effect (IC50) is assessed compared to untreated controls by measuring the length of cords formed and number of junctions.

HUVEC [4] = experiment: Cell migration assay (Boyden chamber); conditions: Homo sapiens, 5 h incubation
Procedure: Migration is assessed using the 48-well Boyden chamber and 8 μm pore size collagen-coated (10 μg/mL rat tail collagen; Collaborative Laboratories) polycarbonate filters (Osmonics, Inc.). The bottom chamber wells receive 27-29 μL of DMEM medium alone (baseline) or medium containing chemo-attractant (bFGF, VEGF or Swiss 3T3 cell conditioned medium). The top chambers receive 45 μL of HUVEC cell suspension […] prepared in DMEM+1% BSA with or without test compound. After 5 h incubation at 37° C., the membrane is rinsed in PBS, fixed and stained in Diff-Quick solutions. The filter is placed on a glass slide with the migrated cells facing down and cells on top are removed using a Kimwipe. The testing is performed in 4-6 replicates and five fields are counted from each well. Negative unstimulated control values are subtracted from stimulated control and drug treated values and data is plotted as mean migrated cell±S.D. IC50 is calculated from the plotted data.

[5] = test system: HeLa cervical adenocarcinoma (epithelial) cells; experiment: Cytotoxicity assay (WST-1); conditions: 100 μM test compound, 72 hours
Procedure: as §1

[6] = Rattus norvegicus, 120 h, day 5, read-out: Growth Inhibition % (Day)
[7] = Rattus norvegicus, 120 h, 4 μg/mL, day 5, read-out: Growth Inhibition % (Day)
[8] = Rattus norvegicus, 120 h, 10 μg/mL, day 5, read-out: Growth Inhibition % (Day)
[9] = Rattus norvegicus, 288 h, day 12, read-out: Growth Inhibition % (Day)
[10] = Rattus norvegicus, 288 h, 4 μg/mL, day 12, read-out: Growth Inhibition % (Day)
[11] = Rattus norvegicus, 288 h, 10 μg/mL, day 12, read-out: Growth Inhibition % (Day)
[12] = Rattus norvegicus, 168 h, 4 μg/mL, day 7, read-out: Growth Inhibition % (Day)
[13] = Rattus norvegicus, 168 h, 10 μg/mL, day 7, read-out: Growth Inhibition % (Day)
[14] = Rattus norvegicus, 168 h, day 7, read-out: Growth Inhibition % (Day)

Structure (SMILES): COc1ccc(NS(=O)(=O)c2ccccc2NC(=O)c2ccc([N+](=O)[O-])cc2)cc1 [Example 4, N-[2-(4-Methoxyphenylsulfamoyl)-phenyl]-4-nitrobenzamide]
- cytotoxicity at 72 hours, 100 µM [1]: 56%

Structure (SMILES): COc1ccc(NS(=O)(=O)c2ccccc2NC(=O)c2ccncc2)cc1 [Example 3, N-[2-(4-Methoxyphenylsulfamoyl)-phenyl]-isonicotinamide]
- inhibition at 0.5 µg/mL (rat aorta ring; [6]): 100%
- inhibition at 1 µg/mL (rat aorta ring; [6]): 100%
- inhibition at 4 µg/mL (rat aorta ring; [7]): 100%
- inhibition at 10 µg/mL (rat aorta ring; [8]): 100%
- inhibition at 0.5 µg/mL (rat aorta ring; [9]): 60%
- inhibition at 1 µg/mL (rat aorta ring; [9]): 100%
- inhibition at 4 µg/mL (rat aorta ring; [10]): 100%
- inhibition at 10 µg/mL (rat aorta ring; [11]): 100%
- cytotoxicity at 72 hours, 100 µM [1]: 92%
- IC50 (HUVEC [2]; Homo sapiens): 290 ± 220 nM
- IC50 (HUVEC [3]): 480 ± 270 nM
- IC50 (HUVEC [4]): 680 ± 170 nM

Structure (SMILES): COc1ccc(N(Cc2ccccc2)S(=O)(=O)c2ccccc2C(=O)Nc2ccncc2)cc1 [Example 15, 2-[Benzyl-(4-methoxyphenyl)-sulfamoyl]-N-pyridin-4-yl-benzamide]
- inhibition at 4 µg/mL (rat aorta ring; [12]): 90%

Structure (SMILES): O=C(Nc1ccccc1)c1ccccc1S(=O)(=O)Nc1ccccc1 [Example 2, N-Phenyl-2-phenylsulfamoylbenzamide]
- inhibition at 4 µg/mL (rat aorta ring; [7]): 50%
- inhibition at 20 µg/mL (rat aorta ring; Rattus norvegicus, 120 h, 20 μg/mL, day 5, read-out: Growth Inhibition % (Day)): 90%
- inhibition at 50 µg/mL (rat aorta ring; Rattus norvegicus, 120 h, 50 μg/mL, day 5, read-out: Growth Inhibition % (Day)): 70%

Structure (SMILES): CC(C)c1cccc(C(C)C)c1NC(=O)c1ccccc1S(=O)(=O)Nc1c(C(C)C)cccc1C(C)C [Example 1, N-(2,6,-Diisopropylphenyl)-2-(2,6-diisopropylphenylsulfamoyl)-benzamide]
- Growth Inhibition % (Day) (rat aorta ring; 4 μg/mL, day 7): 100 (7) %
- Growth Inhibition % (Day) (rat aorta ring; 4 μg/mL, day 14): 100 (14) %
- Growth Inhibition % (Day) (rat aorta ring; 20 μg/mL, day 7): 98 (7) %
- Growth Inhibition % (Day) (rat aorta ring; 20 μg/mL, day 14): 98 (14) %
- Growth Inhibition % (Day) (rat aorta ring; 50 μg/mL, day 7): 100 (7) %
- Growth Inhibition % (Day) (rat aorta ring; 50 μg/mL, day 14): 100 (14) %
- % Cytotoxicity [5]: 94%
- IC50 (HUVEC [2]): 2400 ± 500 nM

Structure (SMILES): COc1ccc(NS(=O)(=O)c2ccccc2NC(=O)c2ccc(F)cc2)cc1 [Example 5, N-[2-(4-Methoxyphenylsulfamoyl)-phenyl]-4-fluorobenzamide]
- inhibition at 10 µg/mL (rat aorta ring; [8]): 80%
- inhibition at 10 µg/mL (rat aorta ring; [11]): 70%
- cytotoxicity at 72 hours, 100 µM [1]: 91%
- IC50 (HUVEC [2]; Homo sapiens): 7100 ± 2700 nM
- IC50 (HUVEC [3]): 36100 ± 9400 nM

Structure (SMILES): CC(C)c1cccc(C(C)C)c1NC(=O)c1ccccc1C(=O)Nc1c(C(C)C)cccc1C(C)C [Example 6, N,N′-Bis-(2,6-diisopropylphenyl)-phthalamide]
- inhibition at 10 µg/mL (rat aorta ring; [13]): 10%

Structure (SMILES): COc1ccc(S(=O)(=O)Nc2ccccc2C(=O)Nc2ccncc2)cc1 [Example 8, 2-(4-Methoxybenzenesulfonylamino)-N-pyridin-4-yl-benzamide]
- inhibition at 10 µg/mL (rat aorta ring; [8]): 80%
- inhibition at 10 µg/mL (rat aorta ring; [11]): 30%
- cytotoxicity at 72 hours, 100 µM [1]: 84%

Structure (SMILES): COc1ccc(NS(=O)(=O)c2ccccc2NS(=O)(=O)c2cccs2)cc1 [Example 13, Thiophene-2-sulfonic acid [2-(4-methoxyphenylsulfamoyl)-phenyl]-amide]
- inhibition at 0.5 µg/mL (rat aorta ring; [14]): 90%
- inhibition at 1 µg/mL (rat aorta ring; [14]): 100%
- inhibition at 4 µg/mL (rat aorta ring; [12]): 100%
- inhibition at 10 µg/mL (rat aorta ring; [13]): 100%
- inhibition at 0.5 µg/mL (rat aorta ring; [9]): 90%
- inhibition at 1 µg/mL (rat aorta ring; [9]): 100%
- inhibition at 4 µg/mL (rat aorta ring; [10]): 100%
- inhibition at 10 µg/mL (rat aorta ring; [11]): 100%
- IC50 (HUVEC [2]; Homo sapiens): 280 ± 220 nM
- IC50 (HUVEC [3]): 410 ± 30 nM
- IC50 (HUVEC [4]): 620 ± 250 nM

Structure (SMILES): COc1ccc(NS(=O)(=O)c2ccccc2C(=O)Nc2ccncc2)cc1 [Example 16]
- Growth Inhibition % (Day) (rat aorta ring; 10 μg/mL, day 7): 70 (7) %
- Growth Inhibition % (Day) (rat aorta ring; 10 μg/mL, day 12): 10 (12) %

Structure (SMILES): COc1ccc(NS(=O)(=O)c2ccccc2S(=O)(=O)Nc2ccc(OC)cc2)cc1 [Example 12, Benzene-1,2-disulfonic acid bis-[(4-methoxyphenyl)-amide]]
- inhibition at 10 µg/mL (rat aorta ring; [11]): 20%
- IC50 (HUVEC [2]; Homo sapiens): > 75000 nM
- IC50 (HUVEC [3]): > 50000 nM
- IC50 (HUVEC [4]): 2300 nM
